According to article PMC7114212 (Antiviral Research, 2006):
Where two headings read alike, the source gives them in different places.

Experiments:
[1] = system: Crandell-Reese feline kidney (CRFK) cells
CEM cells = conditions: cited from earlier work; for IC50: read-out: HIV-1 (CEM) IC50 (50% cytostatic concentration)
HIV-1 (IIIB) = conditions: read-out: HIV-1 (CEM) EC50; cited from earlier work
FIPV strain 79-1146 = assay: microbe, parasite or virus in culture; type: cell-based, feline infectious peritonitis virus; conditions: read-out: FIPV (CRFK) EC50
FIPV = type: cell-based, feline infectious peritonitis virus
[2] = mouse, in vivo, cited from earlier work

Compound | FIPV (CRFK) CC50 [1] | HIV-1 (CEM) IC50 (50% cytostatic concentration) (CEM cells) | IC50 (CEM cells) [µM] | SARS-CoV (Vero) CC50 (Vero cells) | EC50 (HIV-1 (IIIB)) [µM] | EC50 (FIPV strain 79-1146; Alphacoronavirus 1, CRFK, 96 h) [µM] | EC50 (FIPV strain 79-1146) [µM] | CC50 [1] [µM] | CC50 (Vero cells) [µM] | delay of addition after FIPV infection that keeps full antiviral activity (FIPV) | Vss ([2]; iv) [mL/kg] | half-life ([2]; iv) [min] | tissue penetration [2]
CN[C@H](CC(C)C)C(=O)N[C@H]1C(=O)N[C@@H](CC(N)=O)C(=O)N[C@H]2C(=O)N[C@H]3C(=O)N[C@H](C(=O)N[C@H](C(=O)O)c4cc(O)cc(O)c4-c4cc3ccc4O)[C@H](O)c3ccc(c(Cl)c3)Oc3cc2cc(c3O[C@@H]2O[C@H](CO)[C@@H](O)[C@H](O)[C@H]2O[C@H]2C[C@](C)(N)[C@H](O)[C@H](C)O2)Oc2ccc(cc2Cl)[C@H]1O [compound 1, Vancomycin] | neither toxic | neither toxic | > 500 | neither toxic | > 250 | > 80 | > 100 |  |  |  |  |  | 
Carboxyeremomycin [compound 14] |  |  |  |  |  |  | > 80 |  |  |  |  |  | 
De-Cl-eremomycin aglycon [compound 89] |  |  |  |  | > 125 |  | > 100 | > 100 | > 100 |  |  |  | 
Eremomycin [compound 7] | neither toxic | neither toxic | > 500 | neither toxic | > 250 |  | > 100 |  |  |  |  |  | 
Eremomycin aglycon [compound 71] |  |  | > 500 |  | 50 |  | > 80 | > 80 | > 80 |  |  |  | 
Eremomycin aglycon hexapeptide [compound 84] |  |  | > 250 |  | 115 ± 21.2 |  | > 80 | > 80 | > 80 |  |  |  | 
N-Deacyl-A40926 [compound 55] | neither toxic | neither toxic | > 500 | neither toxic | > 250 |  | > 80 |  |  |  |  |  | 
Ristomycin [compound 50] | neither toxic | neither toxic | > 500 | neither toxic | > 250 |  | > 80 |  |  |  |  |  | 
Ristosaminylaglycon of ristomycin [compound 51] |  |  | > 100 |  | > 50 |  | > 80 |  |  |  |  |  | 
Teicoplanin [compound 52] | neither toxic | neither toxic | > 500 | neither toxic |  |  | > 80 |  |  | markedly less delayed |  |  | 
Vancomycin aglycon [compound 65] |  |  | > 500 |  | 65 |  | > 80 | > 80 | > 80 |  |  |  | 
Vancomycin aglycon hexapeptide [compound 69] |  |  |  |  | ≥ 125 |  | > 100 | > 100 | > 100 |  |  |  | 
adamantyl-2 amide of eremomycin [AN0900] |  |  |  |  |  |  |  |  |  |  | 26285 | 185 | deep tissue penetration
demannosyl-N-deacylA40926 [compound 57] | neither toxic | neither toxic | > 500 | neither toxic | 115 ± 21 |  | > 80 |  |  |  |  |  | 
